Test results as given in US20120083522A1, “MODULATION OF INFLAMMATORY RESPONSES BY FACTOR XI” (Isis Pharmaceuitcals, inc., priority 2009, published 2012).

What was measured:
Type in all cases: in vivo
[1] = Tolerability in Sprague-Dawley rats: body and organ weights (Example 23); conditions: 50 mg/kg s.c. twice per week for 6 weeks; for Body weight: increase over PBS control weight before start of treatment; for Kidney weight / Liver weight / Spleen weight: percentage of the body weight
[2] = Tolerability in CD1 mice: body and organ weights (Example 21); conditions: 50 mg/kg s.c. twice per week for 6 weeks; for Body weight: increase over PBS control weight before start of treatment; for Kidney weight / Liver weight / Spleen weight: percentage of the body weight
Description: Body weight was measured at the onset of the study and subsequently twice per week. The body weights of the mice are presented in Table 87 and are expressed increase in grams over the PBS control weight taken before the start of treatment. Liver, spleen, and kidney weights were measured at the end of the study, and are also presented in Table 87 as percentage of the body weight.

[3] = Tolerability in CD1 mice: hematology assays (Example 21); conditions: 50 mg/kg s.c. twice per week for 6 weeks
[4] = Tolerability in Sprague-Dawley rats: liver function (Example 23); design: Albumin: unit not given here; conditions: plasma, 50 mg/kg s.c. twice per week for 6 weeks
[5] = Tolerability in Sprague-Dawley rats: kidney function (Example 23); conditions: for BUN: plasma; for Total urine protein / Urine protein/creatinine ratio: total urine samples
[6] = Tolerability in CD1 mice: kidney function (Example 21); conditions: plasma, 50 mg/kg s.c. twice per week for 6 weeks
[7] = Tolerability in Sprague-Dawley rats: hematology assays (Example 23); design: RBC / WBC / Neutrophil / Lymphocyte / Platelets: unit not given here; conditions: blood
[8] = Tolerability in CD1 mice: liver function (Example 21); design: Albumin: unit not given here; conditions: plasma, 50 mg/kg s.c. twice per week for 6 weeks

Sequence | Body weight [1] | Kidney weight [1] | Liver weight [1] | Spleen weight [1] | Body weight [2] | Kidney weight [2] | Liver weight [2] | Spleen weight [2] | HCT [3] | Hemoglobin [3] | Lymphocyte [3] | Monocytes [3] | Neutrophil [3] | Platelets [3] | RBC [3] | WBC [3] | ALT [4] | AST [4] | Albumin [4] | Bilirubin [4] | also measured
GGACGGCATTGGTGCACAGT (antisense; all C 5-methyl, all phosphorothioate, sugars by position not given here; MOE gapmer, 5-10-5) [ISIS 413482, 5-10-5 MOE gapmer] | 158 g | 1.0% | 5% | 0.6% | 11 g | 1.6% | 6% | 0.5% | 50% | 15 g/dL | 5584 cells/μL | 275 cells/μL | 1958 cells/μL | 818 10^3/μL | 10 10^6/μL | 8 10^3/μL | 59 IU/L | 157 IU/L | 4 | 0.14 mg/dL | creatinine [5]: 34 mg/dL; BUN [5]: 23 mg/dL; Total urine protein [5]: 157 mg/dL; Urine protein/creatinine ratio [5]: 4.8; BUN [6]: 27 mg/dL; HCT [7]: 40%; Hemoglobin [7]: 13.2 g/dL; Lymphocyte [7]: 11430; Neutrophil [7]: 1125; Platelets [7]: 641; RBC [7]: 7.1; WBC [7]: 13; ALT [8]: 54 IU/L; AST [8]: 77 IU/L; Albumin [8]: 3.0; Bilirubin [8]: 0.24 mg/dL; Cholesterol [8]: 138 mg/dL
GGTGCACAGTTTCTGGCAGG (all C 5-methyl, all phosphorothioate, sugars by position not given here; MOE gapmer) [ISIS 413481, 5-10-5 MOE gapmer] | 147 g | 0.9% | 5% | 0.3% | 9 g | 1.5% | 6% | 0.5% | 45% | 13 g/dL | 4329 cells/μL | 204 cells/μL | 1904 cells/μL | 841 10^3/μL | 9 10^6/μL | 7 10^3/μL | 54 IU/L | 80 IU/L | 4 | 0.22 mg/dL | creatinine [5]: 45 mg/dL; BUN [5]: 26 mg/dL; Total urine protein [5]: 148 mg/dL; Urine protein/creatinine ratio [5]: 3.6; BUN [6]: 23 mg/dL; HCT [7]: 43%; Hemoglobin [7]: 14.2 g/dL; Lymphocyte [7]: 12707; Neutrophil [7]: 1046; Platelets [7]: 552; RBC [7]: 7.5; WBC [7]: 14; ALT [8]: 85 IU/L; AST [8]: 143 IU/L; Albumin [8]: 3.2; Bilirubin [8]: 0.18 mg/dL; Cholesterol [8]: 153 mg/dL
